Tested on: nitrification of ammonium nitrogen
Experiment: Suppression of nitrification of ammonium nitrogen in soil
Conditions: 27° C.
Description: A sufficient volume of water was added to 20 g of the soil in a wide-mouth, screw-cap, 4-ounce, glass bottle, such that the moisture content of the mixture was made equal to the 1/3 bar tension value for that soil. The mixture was thoroughly mixed before sealing. […] Acetone slows the rate of soil nitrification and its concentration must be carefully controlled. Single samples of each test chemical were incubated for two weeks at 27° C.
The experiment comprised the following types of samples:
The soil samples were analyzed as follows: Sufficient ammonium sulfate extracting solution was added to the sample, such that the total volume of added water was 50 ml (included water added during sample preparation). The capped mixture was shaken 10 minutes to solubilize nitrate and the soil particulates were allowed to settle. The nitrate concentration in the water phase was determined with a nitrate-specific ion electrode such as Orion Model 93-07.
The non-nitrate nitrogen remaining (% NH4 -N remaining) in the soil after two weeks (performance value) was calculated as follows: [formula]

Structure (SMILES) | % NH4-N Remaining After 2 Weeks Incubation (0.01 ppm) | % NH4-N Remaining After 2 Weeks Incubation (0.1 ppm) | % NH4-N Remaining After 2 Weeks Incubation (1 ppm) | % NH4-N Remaining After 2 Weeks Incubation (10 ppm) | % NH4-N Remaining After 2 Weeks Incubation (0.06 ppm) | % NH4-N Remaining After 2 Weeks Incubation (0.25 ppm) | % NH4-N Remaining After 2 Weeks Incubation (4 ppm) | other results
Cc1cc(C)n2nc(S(=O)(=O)Nc3cc(C(F)(F)F)ccc3S(=O)(=O)N(C)C)nc2n1 [Compound 28] | 0% | 5% | 42% | 66% |  |  |  | 
Cc1cc(C)n2nc(S(=O)(=O)Nc3c(C)cccc3C(N)=O)nc2n1 [Compound 61] |  |  |  | 100% |  |  |  | % NH4-N Remaining After 2 Weeks Incubation (0.6 ppm): 20%; % NH4-N Remaining After 2 Weeks Incubation (1.25 ppm): 34%; % NH4-N Remaining After 2 Weeks Incubation (2.5 ppm): 65%; % NH4-N Remaining After 2 Weeks Incubation (5 ppm): 89%
Cc1cc(C)n2nc(S(=O)(=O)Nc3ccc(Cl)cc3Cl)nc2n1 [Compound 20] |  |  | 8% |  | 0% | 0% |  | % NH4-N Remaining After 2 Weeks Incubation (0.125 ppm): 0%; % NH4-N Remaining After 2 Weeks Incubation (0.5 ppm): 5%
Cc1cc(C)n2nc(S(=O)(=O)Nc3ccccc3Oc3ccc(C(F)(F)F)cc3Cl)nc2n1 [Compound 97] |  |  | 3% |  | 67% | 0% | 19% | 
CNc1ccccc1NS(=O)(=O)c1nc2nc(C)cc(C)n2n1 [Compound 5] | 0% | 0% | 1% | 28% |  |  |  | 
Cc1c(C(=O)O)cnc2nc(S(=O)(=O)Nc3c(Cl)cccc3Cl)nn12 [Compound 224] |  |  | 27% |  | 1% | 0% | 63% | 
CSc1ccccc1NS(=O)(=O)c1nc2ncc(Cl)cn2n1 [Compound 115] |  |  | 64% |  | 37% | 41% | 86% | 
CSc1ccccc1NS(=O)(=O)c1nc2nc(C)ccn2n1 [Compound 142] | 0% | 5% | 62% | 98% |  |  |  | 
Cc1cc(C)n2nc(S(=O)(=O)Nc3ccc(Cl)cc3Br)nc2n1 [Compound 40] |  |  |  | 66% |  |  |  | % NH4-N Remaining After 2 Weeks Incubation (0.6 ppm): 0%; % NH4-N Remaining After 2 Weeks Incubation (1.25 ppm): 0%; % NH4-N Remaining After 2 Weeks Incubation (2.5 ppm): 40%; % NH4-N Remaining After 2 Weeks Incubation (5 ppm): 17%
Cc1cc(C)n2nc(S(=O)(=O)Nc3c(C)cccc3Br)nc2n1 [Compound 58] |  |  | 58% |  | 92% | 48% | 80% | 
Cc1ccn2nc(S(=O)(=O)Nc3ccccc3[S+]([O-])C(F)(F)C(F)F)nc2n1 (stereo not drawn) [Compound 149] |  |  |  | 62% |  |  |  | % NH4-N Remaining After 2 Weeks Incubation (0.6 ppm): 0%; % NH4-N Remaining After 2 Weeks Incubation (1.25 ppm): 0%; % NH4-N Remaining After 2 Weeks Incubation (2.5 ppm): 5%; % NH4-N Remaining After 2 Weeks Incubation (5 ppm): 26%
Cc1cc(C)n2nc(S(=O)(=O)Nc3ccccc3O)nc2n1 [Compound 3] | 0% | 0% | 0% | 25% |  |  |  | 
CSc1cccc(C)c1NS(=O)(=O)c1nc2nc(C)cc(C)n2n1 [Compound 70] |  |  | 69% |  | 0% | 29% | 87% | 
Cc1cc(C)n2nc(S(=O)(=O)Nc3cc(Cl)cc(Cl)c3)nc2n1 [Compound 24] | 0% | 28% | 65% | 83% |  |  |  | 
Cc1cc(C)n2nc(S(=O)(=O)Nc3cc(Cl)ccc3Cl)nc2n1 [Compound 21] | 8% | 42% | 68% | 86% |  |  |  | 
Cc1cc(C)n2nc(S(=O)(=O)Nc3nccs3)nc2n1 [Compound 256] | 20% | 13% | 10% | 48% |  |  |  | 
Cc1cc(C)n2nc(S(=O)(=O)Nc3ccccc3C(=O)O)nc2n1 [Compound 11] | 0% | 0% | 0% | 5% |  |  |  | 
CCCSc1ccccc1NS(=O)(=O)c1nc2nc(C)cc(C)n2n1 [Compound 67] |  |  | 41% |  | 0% | 0% | 69% | 

Structure (SMILES) | % NH4-N Remaining After 2 Weeks Incubation (0.01 ppm) | % NH4-N Remaining After 2 Weeks Incubation (0.1 ppm) | % NH4-N Remaining After 2 Weeks Incubation (1 ppm) | % NH4-N Remaining After 2 Weeks Incubation (10 ppm) | % NH4-N Remaining After 2 Weeks Incubation (0.06 ppm) | % NH4-N Remaining After 2 Weeks Incubation (0.25 ppm) | % NH4-N Remaining After 2 Weeks Incubation (4 ppm) | other results
Cc1cc(C)n2nc(S(=O)(=O)Nc3ncc(Cl)cc3Cl)nc2n1 [Compound 251] | 0% | 0% | 0% | 29% |  |  |  | 
Cc1cc(C)n2nc(S(=O)(=O)Nc3c(C)cccc3C(=O)N(C)C)nc2n1 [Compound 62] |  |  |  | 75% |  |  |  | % NH4-N Remaining After 2 Weeks Incubation (0.6 ppm): 0%; % NH4-N Remaining After 2 Weeks Incubation (1.25 ppm): 13%; % NH4-N Remaining After 2 Weeks Incubation (5 ppm): 55%
Cc1cc(C)n2nc(S(=O)(=O)Nc3ccccc3C(=O)N(C)C)nc2n1 [Compound 42] | 0% | 0% | 8% | 68% |  |  |  | 
COC(=O)c1ccccc1NS(=O)(=O)c1nc2nc(C)c3c(n2n1)CCC3 [Compound 109] | 0% | 0% | 41% | 92% |  |  |  | 
Cc1cc(C)n2nc(S(=O)(=O)Nc3c(C)cccc3C(=O)O)nc2n1 [Compound 103] |  |  | 43% |  | 0% | 15% | 53% | 
CCOc1cnc2nc(S(=O)(=O)Nc3c(C)cccc3Cl)nn2c1 [Compound 202] |  |  | 0% |  | 0% | 0% | 32% | 
Cc1cc(C)n2nc(S(=O)(=O)Nc3c(F)cccc3C(=O)O)nc2n1 [Compound 27] | 0% | 0% | 0% | 35% |  |  |  | 
Cc1cc(C)n2nc(S(=O)(=O)Nc3ccccc3SC(F)(F)C(F)F)nc2n1 [Compound 59] |  |  | 51% |  | 11% | 33% | 66% | 
COC(=O)c1cccc(C)c1NS(=O)(=O)c1nc2nc(C)ccn2n1 [Compound 146] |  |  | 60% |  | 19% | 48% | 79% | 
COC(=O)c1cccc(F)c1NS(=O)(=O)c1nc2nc(C)ccn2n1 [Compound 159] |  |  | 80% |  | 49% | 56% | 94% | 
Cc1cc(C)n2nc(S(=O)(=O)Nc3ccccc3SC(F)(F)F)nc2n1 [Compound 55] |  |  | 65% |  | 19% | 91% | 84% | 
Cc1cc(C)n2nc(S(=O)(=O)Nc3ccccc3Oc3ncc(C(F)(F)F)cc3Cl)nc2n1 [Compound 99] |  |  | 0% |  | 0% |  | 57% | 
O=S(=O)(Nc1c(F)cccc1Cl)c1nc2ncc(Cl)cn2n1 [Compound 116] |  |  | 57% |  | 27% | 50% | 81% | 
Cc1cc(C)n2nc(S(=O)(=O)Nc3c(C)cccc3C(=O)OC(C)C)nc2n1 [Compound 64] |  |  | 62% |  | 19% | 43% | 81% | 
Cc1cc(C)n2nc(S(=O)(=O)Nc3c(C)cccc3C(=O)Oc3ccccc3)nc2n1 [Compound 75] |  |  | 67% |  | 25% | 61% | 86% | 
Cc1ccn2nc(S(=O)(=O)Nc3c(C)cccc3Br)nc2n1 [Compound 148] |  |  |  | 93% |  |  |  | % NH4-N Remaining After 2 Weeks Incubation (0.6 ppm): 69%; % NH4-N Remaining After 2 Weeks Incubation (1.25 ppm): 75%; % NH4-N Remaining After 2 Weeks Incubation (2.5 ppm): 81%; % NH4-N Remaining After 2 Weeks Incubation (5 ppm): 89%
Cc1cc(C)n2nc(S(=O)(=O)Nc3ccccc3S(=O)(=O)C(F)(F)F)nc2n1 [Compound 57] |  |  | 45% |  | 2% | 17% | 69% | 
